In US20030139446A1, “Preparation of pharmaceutical salts” (Schering Corporation, priority 2001, published 2003):
Read-outs that look alike come from different tables or passages of the source.

Settings: diastereomeric ratio 1,2 to 3,4 in solids 95:5

For O=C(O)c1ccccc1O [Salicylate], the “stability remark for salt solids” value (salt prepared in EtOH) was “stable” and the “stability remark for salt solids” value (salt prepared in iPrOAc) was “stable”.
